Experimental findings from PubChem BioAssay (NCI) are described below.

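Briefly, cells in 96-well plates were exposed to five compound concentrations for 48 h, and endpoints were estimated by linear interpolation. TGI marks complete inhibition of growth.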

Among the test systems are SK-MEL-5 melanoma; RPMI-8226 leukemia; COLO 205 colon; HS 578T breast; SW-620 colon; MDA-MB-231 breast; 786-0 renal; SK-MEL-28 melanoma; NCI/ADR-RES ovarian; OVCAR-5 ovarian.
Experiment in all cases: NCI tumour cell line growth inhibition, 48 h

Regarding `CCCCSCc1nc2nc(Cl)c(Cl)nc2[nH]1`, the TGI in the experiment on SK-MEL-5 melanoma is 28.8 µM; in the experiment with RPMI-8226 leukemia, 38.2 µM; in the experiment with COLO 205 colon it was 37 µM; with HS 578T breast, above 100 µM; in the experiment on SW-620 colon it was above 100 µM; with MDA-MB-231 breast, 79.2 µM. Besides, the TGI was 69.3 µM in the experiment with 786-0 renal, 71.9 µM in the experiment on SK-MEL-28 melanoma, 90.8 µM in the experiment on NCI/ADR-RES ovarian and above 100 µM with OVCAR-5 ovarian.
